# Experimental data from publication PMC4515243, “Phase 1 pharmacokinetic study of the oral pan-AKT inhibitor MK-2206 in Japanese patients with advanced solid tumors” (Cancer Chemotherapy and Pharmacology, 2015).
# Where two headings read alike, the source gives them in different places.
# Experiments:
# advanced solid tumors = assay: tumor response according to RECIST version 1.0 in Japanese patients; format: in vivo, human
# Method: The anti-tumor activity was evaluated at baseline and every 6 weeks according to the Response Evaluation Criteria In Solid Tumors (RECIST), version 1.0.
# AKT1 = system: AKT1; parameters: method as in ref 3 = [3]; 3. Yan L (2009) MK-2206: a potent oral allosteric AKT inhibitor [abstract #DDT01-1]. In: Proceedings of the 100th annual meeting of the American association for cancer research, Denver, CO, 18–22 Apr; settings: purified recombinant AKT1, in vitro; cited from earlier work
# AKT3 = system: AKT3; parameters: method as in ref 4 = [4]; 4. Lu W, Defeo-Jones D, Davis L et al (2009) In vitro and in vivo antitumor activities of MK-2206, a new allosteric Akt inhibitor [abstract #3714]. In: Proceedings of the 100th annual meeting of the A; settings: several cancer cell lines; cited from earlier work
# AKT pathway = system: AKT pathway; parameters: method as in PMID 25239610; settings: continuous QOD and intermittent QW dosing, serially obtained tumor and platelet-rich plasma; cited from earlier work
# [1] = system: non-Japanese patients with advanced solid tumors; settings: cited from earlier work
structure (smiles),measurement,setting,value
NC1(c2ccc(-c3nc4ccn5c(=O)[nH]nc5c4cc3-c3ccccc3)cc2)CCC1 [MK-2206],tumor responses (RECIST 1.0),advanced solid tumors; 24 patients evaluated,no tumor responses
same,patients with SD lasting longer than 4 months,advanced solid tumors; all cohorts,6 of the 24
same,"patients with SD lasting longer than 4 months, percent",advanced solid tumors; all cohorts,25%
same,patients with SD for 6 months or longer,"advanced solid tumors; one mediastinal tumor, one esophageal cancer",two patients
same,patients with stable disease (SD) for 4 months or longer,"advanced solid tumors; two cervical cancer, one leiomyosarcoma, one breast cancer",Four patients
same,potency on AKT3 activity relative to AKT1,AKT3,two to sixfold less potently
same,AKT pathway blockade,AKT pathway,Significant AKT pathway blockade
same,patients who experienced a DLT,"[1]; 60 mg QOD, grade 3 skin rash",One of 20
same,"patients who experienced a DLT, percent",[1]; 60 mg QOD,5.0%
same,patients who experienced DLTs,"[1]; 200 mg QW, grade 3 skin rash (three), grade 3 dermatitis acneiform (one)",Four of 17
same,"patients who experienced DLTs, percent",[1]; 200 mg QW,23.5%
same,maximum tolerated dose (MTD),[1]; QOD dosing schedule,60 mg/day
same,maximum tolerated dose (MTD),[1]; QW dosing schedule,200 mg/day
